Molecules are shown by their SMILES.

One molecule from publication PMC2800117, “The hemolytic and cytolytic activities of Serratia marcescens phospholipase A (PhlA) depend on lysophospholipid production by PhlA” (BMC Microbiology, 2009) can be followed below.

This assay addresses T1, Phospholipase A2 derived from bovine pancreas (PLA2) (Bos taurus, UniProt P00593).
T1 construct: gene PLA2G1B; commercial native enzyme from bovine pancreas (Sigma)
In words: fluorescence enhancement (BODIPY FL release, […] nm). The class given is biochemical. The following applies: 10 mM Tris-HCl pH 8.0, 100 mM NaCl, 10 mM CaCl2, 45 nM substrate, 6 min; labelled compound; enzyme used as control.

T1 sequence (P00593 23-145): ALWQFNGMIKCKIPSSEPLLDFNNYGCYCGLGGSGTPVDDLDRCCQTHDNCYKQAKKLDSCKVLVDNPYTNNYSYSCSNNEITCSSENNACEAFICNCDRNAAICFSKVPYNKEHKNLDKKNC

Turning to `CC1=CC(C)=[N+]2C1=Cc1ccc(CCCCCCCCCCC(=O)OC[C@H](COP(=O)([O-])OCC[N+](C)(C)C)OC(=O)CCCCCCCCCCc3ccc4n3[B-](F)(F)[N+]3=C(C)C=C(C)C3=C4)n1[B-]2(F)F` [bis-BODIPY FL C11-PC], the “fluorescence enhancement (BODIPY FL release, 485/530 nm)” value is “S. marcescens PhlA and bovine pancreatic PLA2 released fluorescent fatty acids from bis-BODIPY FLC11-PC”.
